# Results as given in patent US20240343733A1, “COMPOUNDS FOR TARGETING DEGRADATION OF IRAK4 PROTEINS” (BIOGEN MA INC., priority 2021, published 2024).
# Biological target: T1, IRAK4 (Homo sapiens, UniProt Q9NWZ3)
# T1 construct: 293Tcells expressing HiBiT-tagged IRAK4 were then added into 384-well plates
# T1 sequence (Q9NWZ3 1-460): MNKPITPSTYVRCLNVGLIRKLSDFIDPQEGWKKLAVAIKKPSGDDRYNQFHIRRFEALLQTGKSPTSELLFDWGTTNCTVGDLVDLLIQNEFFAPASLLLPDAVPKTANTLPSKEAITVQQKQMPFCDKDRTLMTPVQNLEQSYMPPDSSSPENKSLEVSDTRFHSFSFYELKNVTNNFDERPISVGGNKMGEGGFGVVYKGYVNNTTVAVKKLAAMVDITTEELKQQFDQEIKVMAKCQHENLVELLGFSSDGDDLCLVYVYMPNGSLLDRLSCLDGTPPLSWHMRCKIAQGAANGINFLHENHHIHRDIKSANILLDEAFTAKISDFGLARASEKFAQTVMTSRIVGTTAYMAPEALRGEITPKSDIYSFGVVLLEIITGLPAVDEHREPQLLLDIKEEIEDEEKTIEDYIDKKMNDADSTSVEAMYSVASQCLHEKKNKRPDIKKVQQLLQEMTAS
# Test: IRAK4 Degradation Assay, HiBiT Method
# Format: cell-based
# Conditions: 293T cells expressing HiBiT-tagged IRAK4, 6 hours
# In short: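 Luminescent read-out with Nano-Glo HiBiT lytic reagent after 6 h compound exposure at 37 °C. Cells were HiBiT-IRAK4 knock-in 293T (C-terminal tag), 10,000 per well. Compounds ran as 11-point half-log dilutions from […] highest dose, duplicate wells; DMSO served as negative control.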
row,Compound,DC50 [µM]
1,"CC(C)Oc1cc2nn(C3CCN(C(=O)CC4(O)CCN(c5cc(F)c(NC6CCC(=O)NC6=O)cc5F)CC4)CC3)cc2cc1C(=O)Nc1cccc(C(F)F)n1 (stereo not drawn) [Example 66, N-(6-(difluoromethyl)pyridin-2-yl)-2-(1-(2-(1-(4-((2,6-dioxopiperidin-3-yl)amino)-2,5-difluorophenyl)-4-hydroxypiperidin-4-yl)acetyl)piperidin-4-yl)-6-isopropoxy-2H-indazole-5-carboxamide]",0.01 to 0.1
2,"CC(C)Oc1cc2nn([C@H]3CC[C@H](CN4CCC(c5ccc6c(c5)n(C)c(=O)n6C5CCC(=O)NC5=O)CC4)CC3)cc2cc1C(=O)Nc1cccn([C@H]2C[C@H]2F)c1=O (stereo partly drawn) [Example 137, 2-((1r,4S)-4-((4-(1-(2,6-dioxopiperidin-3-yl)-3-methyl-2-oxo-2,3-dihydro-1H-benzo[d]imidazol-5-yl)piperidin-1-yl)methyl)cyclohexyl)-N-(1-((1S,2R)-2-fluorocyclopropyl)-2-oxo-1,2-dihydropyridin-3-yl)-6-isopropoxy-2H-indazole-5-carboxamide]",< 0.01
3,"CC(C)Oc1cc2nn([C@H]3CC[C@H](CN4CC[C@@H](c5ccc6c(C7CCC(=O)NC7=O)nn(C)c6c5)[C@@H](O)C4)CC3)cc2cc1C(=O)Nc1cccn([C@H]2C[C@H]2F)c1=O (stereo partly drawn) [Example 133, 2-((1R,4S)-4-(((3R,4S)-4-(3-(2,6-dioxopiperidin-3-yl)-1-methyl-1H-indazol-6-yl)-3-hydroxypiperidin-1-yl)methyl)cyclohexyl)-N-(1-((1S,2R)-2-fluorocyclopropyl)-2-oxo-1,2-dihydropyridin-3-yl)-6-isopropoxy-2H-indazole-5-carboxamide]",< 0.01
4,"CC(C)Oc1cc2nn(C3CCN(C(=O)CC4CCN(c5ncc(C6CCC(=O)NC6=O)cc5F)CC4)CC3)cc2cc1C(=O)Nc1cccn([C@H]2C[C@H]2F)c1=O (stereo partly drawn) [Example 151, 2-(1-(2-(1-(5-(2,6-dioxopiperidin-3-yl)-3-fluoropyridin-2-yl)piperidin-4-yl)acetyl)piperidin-4-yl)-N-(1-((1S,2R)-2-fluorocyclopropyl)-2-oxo-1,2-dihydropyridin-3-yl)-6-isopropoxy-2H-indazole-5-carboxamide]",< 0.01
5,"CC(C)Oc1cc2nn([C@H]3CC[C@H](CN4CC[C@@H](c5ccc6c(N7CCC(=O)NC7=O)nn(C)c6c5)[C@H](O)C4)CC3)cc2cc1C(=O)Nc1cccn([C@H]2C[C@H]2F)c1=O [Example 132, 2-((1S,4S)-4-(((3S,4S)-4-(3-(2,4-dioxotetrahydropyrimidin-1(2H)-yl)-1-methyl-1H-indazol-6-yl)-3-hydroxypiperidin-1-yl)methyl)cyclohexyl)-N-(1-((1S,2R)-2-fluorocyclopropyl)-2-oxo-1,2-dihydropyridin-3-yl)-6-isopropoxy-2H-indazole-5-carboxamide]",< 0.01
6,CC(C)Oc1nc2nc(C3CCN(C(=O)N(C)C4CCN(c5ncc(C6CCC(=O)NC6=O)cc5F)CC4)CC3)cn2cc1C(=O)Nc1cccn(C2CC2)c1=O (stereo not drawn) [Example 195],0.01 to 0.1
7,"CC(C)Oc1cc2nc(C3CCN(C(=O)CC4CC5(C4)CN(c4ccc(C6CCC(=O)NC6=O)cn4)C5)CC3)cn2cc1C(=O)Nc1cccn([C@H]2C[C@H]2F)c1=O (stereo partly drawn) [Example 183, 2-(1-(2-(2-(5-(2,6-dioxopiperidin-3-yl)pyridin-2-yl)-2-azaspiro[3.3]heptan-6-yl)acetyl)piperidin-4-yl)-N-(1-((1S,2R)-2-fluorocyclopropyl)-2-oxo-1,2-dihydropyridin-3-yl)-7-isopropoxyimidazo[1,2-a]pyridine-6-carboxamide]",< 0.01
8,"CC(C)Oc1cc2nn([C@H]3CC[C@H](CN4CCOC[C@H]4Cc4ccc(OC5CCC(=O)NC5=O)cc4)CC3)cc2cc1C(=O)Nc1cccn(C2CC2)c1=O (stereo partly drawn) [Example 127, N-(1-cyclopropyl-2-oxo-1,2-dihydropyridin-3-yl)-2-((S,4r)-4-(((3S)-3-(4-((2,6-dioxopiperidin-3-yl)oxy)benzyl)morpholino)methyl)cyclohexyl)-6-isopropoxy-2H-indazole-5-carboxamide]",0.01 to 0.1
9,"CC(C)Oc1cc2nc(C3CCN(CC(=O)N4CCC(c5ccc(C6(F)CCC(=O)NC6=O)cc5)CC4)CC3)cn2cc1C(=O)Nc1ccn(C)n1 (stereo not drawn) [Example 102, 2-[1-[2-[4-[4-(3-fluoro-2,6-dioxo-3-piperidyl)phenyl]-1-piperidyl]-2-oxo-ethyl]-4-piperidyl]-7-isopropoxy-N-(1-methylpyrazol-3-yl)imidazo[1,2-a]pyridine-6-carboxamide]",0.01 to 0.1
10,CC(C)Oc1cc2nc([C@H]3CC[C@](F)(CN4CCC(c5ccc6c(c5)n(C)c(=O)n6C5CCC(=O)NC5=O)CC4)CC3)cn2cc1C(=O)Nc1cccn([C@H]2C[C@H]2F)c1=O (stereo partly drawn) [Example 194],0.01 to 0.1
11,CC(C)Oc1nc2nc(C3CCN(C(=O)N(C)C4CCN(c5ncc(C6CCC(=O)NC6=O)cc5F)CC4)CC3)cn2cc1C(=O)Nc1cccn([C@H]2C[C@H]2F)c1=O (stereo partly drawn) [Example 193],0.01 to 0.1
12,CC(C)Oc1cc2nc([C@H]3CC[C@H](CN4CC5(CCN(c6ncc(N7CCC(=O)NC7=O)cc6F)CC5)C4)CC3)cn2cc1C(=O)Nc1cccn(C2CC2)c1=O [Example 190],0.01 to 0.1
13,CC(C)Oc1nc2nc(C3CCN(C(=O)CC4CC5(C4)CN(c4ccc(C6CCC(=O)NC6=O)cn4)C5)CC3)cn2cc1C(=O)Nc1cccn([C@H]2C[C@H]2F)c1=O (stereo partly drawn) [Example 196],< 0.01

# Further lines, results first:
row,DC50 [µM],Compound
1,0.1 to 0.5,"CC(C)Oc1cc2nc([C@H]3CC[C@H](CN(C)C4CCN(c5ccc(C6CCC(=O)NC6=O)cc5)CC4(F)F)CC3)cn2cc1C(=O)Nc1cccc(C(F)F)n1 (stereo partly drawn) [Example 42, N-[6-(difluoromethyl)-2-pyridyl]-2-[4-[[[1-[4-(2,6-dioxo-3-piperidyl)phenyl]-3,3-difluoro-4-piperidyl]-methyl-amino]methyl]cyclohexyl]-7-isopropoxy-imidazo[1,2-a]pyridine-6-carboxamide]"
2,< 0.01,"CC(C)Oc1cc2nc(C3CCC(CN4CC[C@H](c5cc6c(cc5F)c(N5CCC(=O)NC5=O)nn6C)[C@H](O)C4)CC3)cn2cc1C(=O)Nc1cccn([C@H]2C[C@H]2F)c1=O (stereo partly drawn) [Example 185, 2-((1S,4S)-4-(((3S,4R)-4-(3-(2,4-dioxotetrahydropyrimidin-1(2H)-yl)-5-fluoro-1-methyl-1H-indazol-6-yl)-3-hydroxypiperidin-1-yl)methyl)cyclohexyl)-N-(1-((1S,2R)-2-fluorocyclopropyl)-2-oxo-1,2-dihydropyridin-3-yl)-7-isopropoxyimidazo[1,2-a]pyridine-6-carboxamide]"
3,0.01 to 0.1,"CC(C)Oc1cc2nc([C@H]3CC[C@H](CN4CCC(c5ccc(NC6CCC(=O)NC6=O)cn5)CC4)CC3)cn2cc1C(=O)Nc1cccc(C(F)F)n1 (stereo partly drawn) [Example 35, N-[6-(difluoromethyl)-2-pyridyl]-2-[4-[[4-[5-[(2,6-dioxo-3-piperidyl)amino]-2-pyridyl]-1-piperidyl]methyl]cyclohexyl]-7-isopropoxy-imidazo[1,2-a]pyridine-6-carboxamide]"
4,< 0.01,CC(C)Oc1cc2nc(C3CCN(C(=O)CC4CCN(c5cnc(C6CCC(=O)NC6=O)cn5)CC4)CC3)cn2cc1C(=O)Nc1cccn([C@H]2C[C@H]2F)c1=O (stereo partly drawn) [Example 189]
5,0.01 to 0.1,"CC(C)Oc1cc2nc(C3CCN(C(=O)CC4(O)CCN(c5cc(F)c(NC6CCC(=O)NC6=O)cc5F)CC4)CC3)cn2cc1C(=O)Nc1cccc(C(F)(F)F)n1 (stereo not drawn) [Example 74, 2-[1-[2-[1-[4-[(2,6-dioxo-3-piperidyl)amino]-2,5-difluoro-phenyl]-4-hydroxy-4-piperidyl]acetyl]-4-piperidyl]-7-isopropoxy-N-[6-(trifluoromethyl)-2-pyridyl]imidazo[1,2-a]pyridine-6-carboxamide]"
6,< 0.01,"CC(C)Oc1cc2nc([C@H]3CC[C@H](CN4CCC(c5ccc6c(c5)oc(=O)n6C5CCC(=O)NC5=O)CC4)CC3)cn2cc1C(=O)Nc1cnn2cccnc12 (stereo partly drawn) [Example 173, 2-((1r,4r)-4-((4-(3-(2,6-dioxopiperidin-3-yl)-2-oxo-2,3-dihydrobenzo[d]oxazol-6-yl)piperidin-1-yl)methyl)cyclohexyl)-7-isopropoxy-N-(pyrazolo[1,5-a]pyrimidin-3-yl)imidazo[1,2-a]pyridine-6-carboxamide]"
7,0.01 to 0.1,"CC(C)Oc1cc2nc([C@H]3CC[C@H](CN4CCC(c5ccc(OC6CCC(=O)NC6=O)cc5)CC4)CC3)cn2cc1C(=O)Nc1cccn(C2CC2)c1=O (stereo partly drawn) [Example 166, N-(1-cyclopropyl-2-oxo-1,2-dihydropyridin-3-yl)-2-((1r,4r)-4-((4-(4-((2,6-dioxopiperidin-3-yl)oxy)phenyl)piperidin-1-yl)methyl)cyclohexyl)-7-isopropoxyimidazo[1,2-a]pyridine-6-carboxamide]"
8,0.1 to 0.5,"CC(C)Oc1cc2nc([C@H]3CC[C@H](CN(C)C4CCN(c5ccc(NC6CCC(=O)NC6=O)cc5)CC4)CC3)cn2cc1C(=O)Nc1cccc(C(F)(F)F)n1 (stereo partly drawn) [Example 7, 2-[4-[[[1-[4-[(2,6-dioxo-3-piperidyl)amino]phenyl]-4-piperidyl]-methyl-amino]methyl]cyclohexyl]-7-isopropoxy-N-[6-(trifluoromethyl)-2-pyridyl]imidazo[1,2-a]pyridine-6-carboxamide]"
